Reference: US6949522B2, “β-2′- or 3′-halonucleosides” (Pharmasset, Inc., priority 2001, dated 2005)
Marks after values point to notes of the source that are not given here.

Key:
[1] = test system: CEM (T-lymphoblastoid cell line); assay type: cell-based
Experimental: (§1) The compounds were evaluated for their potential toxic effects on uninfected PHA-stimulated human PBM cells, in CEM (T-lymphoblastoid cell line obtained from American Type Culture Collection, Rockville, Md.) and Vero (African green monkey kidney) cells. PBM cells were obtained from whole blood of healthy seronegative donors (HIV-1 and hepatitis B virus) by single-step Ficoll-Hypaque discontinous gradient centrifugation. Log phase Vero, CEM and PHA-stimulated human PBM cells were seeded at a density of 5×10^3, 2.5×10^3 and 5×10^4 cells/well respectively. All of the cells were plated in 96-well cell culture plates containing ten-fold serial dilutions of the test drug. The cultures were incubated for 3, 4 and 5 days for Vero, CEM, and PBM cells, respectively in a humidified 5% CO2-air at 37° C. At the end of incubation, MTT tetrazolium dye solution (Cell titer 96®, Promega, Madison, Wis.) was added to each well and incubated overnight. The reaction was stopped with stop solubilization solution (Promega, Madison, Wis.). The plates were incubated for 5 hours to ensure that the formazan crystals were dissolved. The plates were read at a wavelength of 570 nm using an ELISA plate reader (Bio-tek instruments, Inc., Winooski, Vt., Model # EL 312e). […] Bookmark not defined.

[2] = test system: Vero (African green monkey kidney) cells; experiment: in vitro; assay type: cell-based
Experimental: as §1

human PBM cells = experiment: in vitro; assay type: cell-based
Experimental: as §1, with “Log phase Vero, CEM and PHA-stimulated human PBM cells were seeded at a density of 5×10^3, 2.5×10^3 and 5×10^4 cells/well respectively.” left out, “The cultures were incubated for 3, 4 and 5 days for Vero, CEM, and PBM cells, respectively in a humidified 5% CO2-air at 37° C.” left out

HIV-1LAI = experiment: HIV assay in human PBM cells (RT activity of supernatant); assay type: cell-based; conditions: 5 days, read-out: Anti-HIV-1 Activity (EC50)
From the text: Human peripheral blood mononuclear (PBM) cells (obtained from Atlanta Red Cross) were isolated by Ficoll-Hypaque discontinuous gradient centrifugation from healthy seronegative donors. Cells were stimulated with phytohemagglutinin A (Difco, Sparks, Md.) for 2-3 days prior to use. HIV-1LAI obtained from the Centers for Disease Control and Prevention (Atlanta, Ga.) was used as the standard reference virus for the antiviral assays. The molecular infetious clones HIV-1xxBru and HIV-1M184Vpin were obtained from Dr. John Mellors (University of Pittsburgh). Infections were done in bulk for one hour, either with 100 TCID50/1×10^7 cells for a flask (T25) assay or with 200 TCID50/6×10^5 cells/well for a 24 well plate assay. Cells were added to a plate or flask containing a ten-fold serial dilution of the test compound. Assay medium was RPMI-1640 supplemented with heat inactivated 16% fetal bovine serum, 1.6 mM L-glutamine, 80 IU/ml penicillin, 80 μg/ml streptomycin, 0.0008% DEAE-Dextran, 0.045% sodium bicarbonate, and 26 IU/ml recombinant interleukin-2 (Chiron Corp, Emeryville, Calif.). AZT was used as a positive control for the assay. Untreated and uninfected PBM cells were grown in parallel at equivalent cell concentrations as controls. The cell cultures were maintained in a humidified 5% CO2-air at 37° C. for 5 days and supernatants were collected for reverse transcriptase (RT) activity.
Supernatants were centrifuged at 12,000 rpm for 2 hours to pellet the virus. The pellet was solubilized with vortexing in 100 μl virus solubilization buffer (VSB) containing 0.5% Triton X-100, 0.8 M NaCl, 0.5 mM phenylmethylsulfonyl fluoride, 20% glycerol, and 0.05 M Tris, pH 7.8. Ten μL of each sample were added to 75 μL RT reaction mixture (0.06 M Tris, pH 7.8, 0.012 M MgCl2, 0.006 M dithiothreitol, 0.006 mg/ml poly (rA)n, oligo (dT)12-18, 96 μg/ml dATP, and 1 μM of 0.08 mCi/ml ^3H-thymidine triphosphate (Moravek Biochemicals, Brea, Calif.) and incubated at 37° C. for 2 hours. The reaction was stopped by the addition of 100 μL 10% trichloroacetic acid containing 0.05% sodium pyrophosphate. The acid insoluble product was harvested onto filter paper using a Packard Harvester (Meriden, Conn.), and the RT activity was read on a Packard Direct Beta Counter (Meriden, Conn.). The RT results were expressed in counts per minute (CPM) per milliliter.

[3] = test system: mitochondrial cytochrome C oxidase subunit II (COXII) gene; assay type: cell-based, human; conditions: HepG2, 10 μM, 7 days
From the text: The Q-RT-PCR technology was also used to evaluate potential mitochondrial γ-DNA polymerase inhibition by the compounds of the present invention in relevant human cells. […] Since active nucleoside compounds in the triphosphate form lack a 3′-OH, thereby stopping virus replication by chain termination, there is a concern that these nucleoside analogues are also substrates for the human DNA polymerase γ, resulting in inhibition of mitochondrial DNA replication and subsequently toxic side effects (11, 19). In an attempt to provide direct quantifiable data on mitochondrial DNA levels intracellular, a Q-PCR technology was designed and relative quantification of COXII DNA levels were calculated using the comparative Ct method. […] Also, in agreement with previous observations, no changes in normalized mitochondrial DNA levels were observed after FIAU and D4T treatment (6, 8, 23).
Low passage number HepG2 cells, obtained from American Tissue Culture Collection (ATCC, Manassas, Va.) were seeded at 5,000 cells/well in collagen-coated 96-well plates. Test compounds were added to the media to obtain a final concentration of 10 μM. On culture day 7, cellular nucleic acids were prepared by using commercially available columns (RNeasy 96 kit, Qiagen). […] The mitochondrial cytochrome C oxidase subunit II (COXII) gene and the β-actin or rRNA gene were amplified from 5 μL with a multiplex Q-PCR protocol using the suitable primers and probes for both target and reference (designed using the Primer Express software, Applied Biosystems); • for COXII. • sense primer 5′-[…]-3′ (Sequence 7); • probe 5′-TET-[…]-TAMRA-3′ (Sequence 8); and • antisense probe 5′-[…]-3′ (Sequence 9); • for exon 3 of β-actin (GenBank E01094): • sense primer 5′-[…]-3′ (Sequence 10); • probe 5′-6FAM-[…]-TAMRA-3′ (Sequnece 11); and • antisense probe 5′-[…]-3′ (Sequence 12).
The rRNA gene primers and probes were purchased from Applied Biosystems. Standard curves using 1-log diluted total HepG2 DNA were linear over more than 5 logs. In addition, efficiencies of target (COXII DNA) and reference (β-actin DNA or rRNA) amplification were approximately equal, because the slope of the ΔCt line (Ct β-actin minus Ct mitochondrial) was less than 0.1 (not shown). Since equal amplification efficiencies were obtained for both genes, the comparative cycle threshold (Ct) method was used to investigate potential inhibition of the mitochondrial DNA polymerase γ. The comparative Ct method uses arithmetic formulas in which the amount of target (COXII gene) is normalized to an endogenous reference (β-actin gene or rRNA gene) and is relative to a calibrator (no drug control at day 7). The arithmetic formula for this approach is given by 2-ΔΔCt (User bulletin # 2, Applied Biosystems).
In order to study the consequences of possible inhibitory effects of these compounds on host DNA polymerases, nuclear and rnitochondrial DNA levels were quantified and compared to no-treatment controls. Cells were incubated for 7 days with 10 μM of each compound, followed by total nucleic acid extractions and multiplex Q-PCR of the rRNA gene and the mitochondrial COXII gene. Nucleic acids from cells exposed to the control compounds were also amplified in multiplex for mitDNA and the β-actin gene. The results are presented in Table 4 using the comparative Ct method.

Molecule	IC50 [1]	IC50 [2]	IC50 (human PBM cells)	EC50 (HIV-1LAI)	COXIINrDNA (range) relative to control ([3]; COXII DNA normalized to rDNA, 2-ΔΔCt)	Average ΔΔCt ± SD COXII-rDNA [3]	Average ΔΔCt ± SD COXII-β-actin [3]	effect on (normalized) mitochondrial COXII DNA levels, in words [3]	COXIINβ-actin DNA (range) relative to control ([3]; COXII DNA normalized to β-actin DNA, 2-ΔΔCt)	Average ΔCt ± SD COXII DNA [3]
O=c1[nH]cnc2c1ncn2[C@H]1S[C@@H](CO)C=C1F [Compound L-28, (−)-9-[(1S,4R)-2,3-dideoxy-2,3-didehydro-2-fluoro-4-thio-β-L-ribofuranosyl]-hypoxanthine]	> 100 µM	> 100 µM	> 100 µM	15.5 µM	–	–	–	–	–	–
O=c1ccn([C@H]2S[C@@H](CO)C=C2F)c(=O)[nH]1 [Compound L-20, (+)-1-[(1S,4R)-2,3-dideoxy-2,3-didehydro-2-fluoro-4-thio-β-L-ribofuranosyl]-uracil]	> 100 µM	> 100 µM	> 100 µM	> 100 µM	–	–	–	–	–	–
Cc1cn([C@H]2S[C@@H](CO)C=C2F)c(=O)[nH]c1=O [Compound L-19, (+)-1-[(1S,4R)-2,3-dideoxy-2,3-didehydro-2-fluoro-4-thio-β-L-ribofuranosyl]-thymine]	> 100 µM	> 100 µM	> 100 µM	> 100 µM	–	–	–	–	–	–
Nc1nc2c(ncn2[C@@H]2S[C@H](CO)C=C2F)c(=O)[nH]1 [Compound D-32, (−)-9-[(1R,4S)-2,3-dideoxy-2,3-didehydro-2-fluoro-4-thio-β-D-ribofuranosyl]-guanosine]	> 100 µM	> 100 µM	> 100 µM	80.5 µM	–	–	–	–	–	–
Nc1nc2c(ncn2[C@H]2S[C@@H](CO)C=C2F)c(=O)[nH]1 [Compound L-32, (+)-9-[(1S,4R)-2,3-dideoxy-2,3-didehydro-2-fluoro-4-thio-β-L-ribofuranosyl]-guanosine]	10.4 µM	66.1 µM	13 µM	–	–	–	–	–	–	–
O=c1[nH]cnc2c1ncn2[C@@H]1S[C@H](CO)C=C1F [Compound D-28, (+)-9-[(1R,4S)-2,3-dideoxy-2,3-didehydro-2-fluoro-4-thio-β-D-ribofuranosyl]-hypoxanthine]	> 100 µM	> 100 µM	> 100 µM	43.6 µM	–	–	–	–	–	–
Nc1ncnc2c1ncn2[C@H]1S[C@@H](CO)C=C1F [Compound L-27, (−)-9-[(1S,4R)-2,3-dideoxy-2,3-didehydro-2-fluoro-4-thio-β-L-ribofuranosyl]adenine]	> 100 µM	> 100 µM	> 100 µM	1.7 µM	–	–	–	–	–	–
Nc1nc(F)nc2c1ncn2[C@@H]1S[C@H](CO)C=C1F [Compound D-33, (+)-9-[(1R,4S)-2,3-dideoxy-2,3-didehydro-2-fluoro-4-thio-β-D-ribofuranosyl]-2-fluoroadenosine]	1.1 µM	7.6 µM	1.5 µM	1.2 µM	–	–	–	–	–	–
Nc1ccn([C@H]2CC[C@@H](CO)O2)c(=O)n1 [D-ddC, β-D-2′,3′-dideoxycytidine]	–	–	–	–	0.23 (0.15-0.37)	2.09 ± 0.65^d	2.9 ± 0.23^d	reduce rnitochondrial COXII DNA levels	–	–
(−)-1-[(1S,4R)-2,3-dideoxy-2,3-didehydro-2-fluoro-4-thio-β-D-ribofuranosyl]-thymine [Compound D-19]	> 100 µM	53 µM	> 100 µM	92.3 µM	–	–	–	–	–	–
Cc1cn([C@H]2C=C[C@@H](CO)O2)c(=O)[nH]c1=O [D-D4T, β-D-2′,3′-didehydro-3′-deoxythymidine]	–	–	–	–	–	–	0.23 ± 0.04	no changes	0.85 (0.79-0.88)	0.29 ± 0.01
(−)-1-[(1S,4R)-2,3-dideoxy-2,3-didehydro-2-fluoro-4-thio-β-D-ribofuranosyl]-uracil [Compound D-20]	> 100 µM	> 100 µM	> 100 µM	> 100 µM	–	–	–	–	–	–
